IC50 data for 14 compounds are collected here from patent US8680132B2, “Spiro-oxindole MDM2 antagonists” (priority 2010, dated 2014).

Each structure is given as a SMILES string. Several values for one entry are separate records, joined by “and”; a condition that tells them apart may be missing. Equal values may be shown once. Where a name gives a salt, the structure may show the parent alone. Read-outs that look alike come from different tables or passages of the source.

One assay deals with SJSA-1 (p53 wild-type). In words: Cell growth assay (WST-8). The class given is cell-based. (Tetrazolium dyes change colour on reduction, which living cells bring about.)
The next assay concerns RS4; 11 (p53 wt). In words: cells. The settings on record: Homo sapiens, RS4-11, 96 h, read-out: RS4, 11 (p53 wt) IC50 (μM).
The subject of a further assay is LNCAP (p53 wild-type). In words: Cell growth assay (WST-8). The class given is cell-based, human.
A further assay has as its system HCT-116 (p53 wild-type). In words: Cell growth assay (WST-8). The class given is cell-based, human.
A further assay concerns PC-3 (deleted p53). Description: Cell growth assay (WST-8). The settings on record: read-out: IC50 PC-3 (deleted p53). The class given is cell-based.
The test system of a further assay is HCT-116 (p53—/—). Description: Cell growth assay (WST-8). The class given is cell-based.
Assay [1] has as its target recombinant human His-tagged MDM2 protein (residues 1-118) (Homo sapiens (Human), UniProt Q00987). In words: Fluorescence-polarization MDM2 binding assay (Example 2). The note with it: Table 2A; no unit in the cell (μM unless otherwise indicated).
Assay [2] deals with prostate cancer cell line 22Rv1. In words: Growth inhibition assay (Celltiter-Glo), 22Rv1. The class given is cell-based. The note with it: Homo sapiens, 22Rv1, 96 h, read-out: IC50 growth inhibition. A general note: Cellular ATP, detected with luciferase, serves as a proxy for viable cell number.
[3] abbreviates: Homo sapiens, SJSA-1, read-out: IC50 SJSA-1 (p53 wild-type).
The mark [4] stands for this setting: Homo sapiens, LNCaP, read-out: IC50 LNCAP (p53 wild-type).
The mark [5] stands for this setting: Homo sapiens, HCT-116, read-out: IC50 HCT-116 (p53 wild-type).
Setting [6] is: Homo sapiens, SJSA-1, 96 h, read-out: IC50 SJSA-1 (p53 wild-type).
[7] abbreviates: Homo sapiens, HCT-116, 96 h, read-out: IC50 HCT-116 (p53—/—).
[8] abbreviates: Homo sapiens, LNCaP, 96 h, read-out: IC50 LNCAP (p53 wild-type).
[9] abbreviates: Homo sapiens, HCT-116, 96 h, read-out: IC50 HCT-116 (p53 wild-type).
Setting [10] is: Homo sapiens, SJSA-1; read-out: IC50 SJSA-1 (p53 wild-type).
[11] abbreviates: Homo sapiens, LNCaP; read-out: IC50 LNCAP (p53 wild-type).
[12] abbreviates: Homo sapiens, HCT-116, read-out: IC50 HCT-116 (p53—/—).

recombinant human His-tagged MDM2 protein (residues 1-118), sequence (Q00987 1-118): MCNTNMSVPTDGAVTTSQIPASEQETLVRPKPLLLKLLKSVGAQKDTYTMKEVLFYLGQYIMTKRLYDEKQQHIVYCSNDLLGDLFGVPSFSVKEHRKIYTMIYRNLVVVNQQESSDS

Take `CC(C)(C)C[C@H]1N[C@@H](C(=O)NC2CCC(O)CC2)[C@H](c2cccc(Cl)c2F)[C@@]12C(=O)Nc1cc(Cl)ccc12` (stereo partly shown) [MI-773]: the IC50 in the assay with SJSA-1 (p53 wild-type) (setting [3]) was found to be 61 nM; with RS4; 11 (p53 wt) (Four day treatment) it was 0.13 µM; in the assay with LNCAP (p53 wild-type) (setting [4]), 85 nM; in the assay on HCT-116 (p53 wild-type) (setting [5]), 58 nM; in the assay with PC-3 (deleted p53), 14700 nM.

As for `CC(C)(C)C[C@H]1N[C@@H](C(=O)N[C@H]2C[C@@](C)(O)C2)[C@H](c2cccc(Cl)c2F)[C@@]12C(=O)Nc1cc(Cl)ccc12` [MI-519-64], the IC50 in the assay on SJSA-1 (p53 wild-type) (setting [6]) was determined as 270 nM; with HCT-116 (p53—/—) (setting [7]) it was 13700 nM; with LNCAP (p53 wild-type) (setting [8]) it was 500 nM; in the assay with HCT-116 (p53 wild-type) (setting [9]), 180 nM; in the assay on PC-3 (deleted p53) (96 h), 6100 nM.

Turning to `O=C(NC1CCC(O)CC1)[C@@H]1N[C@@H](c2ccccc2)[C@@]2(C(=O)Nc3cc(Cl)ccc32)[C@H]1c1cccc(Cl)c1F` (single isomer, unassigned) [CB087-Isomer B], the IC50 in assay [1] is below 0.5 µM.

For the compound `CCN1[C@@H](CC(C)(C)C)[C@@]2(C(=O)Nc3cc(Cl)ccc32)[C@@H](c2cccc(Cl)c2F)[C@@H]1C(=O)N[C@H]1C[C@@](C)(O)C1` [C29701], the IC50 in assay [1] is below 0.1 µM.

Take `CN1[C@@H](CC(C)(C)C)[C@@]2(C(=O)Nc3cc(Cl)ccc32)[C@@H](c2cccc(Cl)c2F)[C@@H]1C(=O)N[C@H]1C[C@@](C)(O)C1` [C30201]: the IC50 in assay [1] is below 0.1 µM.

In the case of `CC(C)(C)C[C@@H]1N[C@@H](C(=O)NC2CCC(O)CC2)[C@H](c2cccc(Cl)c2F)[C@]12C(=O)Nc1cc(Cl)ccc12` (stereo partly shown) [MI-77301 (TFA salt)], the IC50 with SJSA-1 (p53 wild-type) (read-out: IC50 SJSA-1 (p53 wild-type); Four day treatment) was 83 nM and 75 nM; with RS4; 11 (p53 wt) (Four day treatment), 0.059 ± 0.025 µM; in the assay on LNCAP (p53 wild-type) (read-out: IC50 LNCAP (p53 wild-type); Four day treatment) it was 86 ± 16 nM; with HCT-116 (p53 wild-type) (read-out: IC50 HCT-116 (p53 wild-type); Four day treatment), 48 ± 14 nM; with PC-3 (deleted p53) (Four day treatment), 13000 ± 3000 nM.

`O=C(NC1CCC(O)CC1)[C@@H]1N[C@@H](c2ccccc2)[C@@]2(C(=O)Nc3cc(Cl)ccc32)[C@H]1Cc1ccccc1` (single isomer, unassigned) [CB083-Isomer B]: in assay [1], the IC50 is above 5 µM.

As for `CC(C)(C)C[C@H]1N[C@@H](C(=O)N[C@H]2C[C@@](C)(O)C2)[C@H](c2cccc(Cl)c2)[C@@]12C(=O)Nc1cc(F)c(F)cc12` [C035], the IC50 in the assay on SJSA-1 (p53 wild-type) (setting [10]) was below 5000 nM; in the assay with HCT-116 (p53—/—) (Homo sapiens, HCT-116; read-out: IC50 HCT-116 (p53—/—)), above 10000 nM; with LNCAP (p53 wild-type) (setting [11]), below 5000 nM; in assay [1], below 3 µM; with HCT-116 (p53 wild-type) (Homo sapiens, HCT-116; read-out: IC50 HCT-116 (p53 wild-type)), below 5000 nM; with PC-3 (deleted p53) it was above 10000 nM.

As to `CC(C)(C)C[C@@H]1N[C@@H](C(=O)NC2CCC(C)(O)CC2)[C@H](c2cccc(Cl)c2F)[C@]12C(=O)Nc1cc(Cl)ccc12` (stereo partly shown), the IC50 in the assay with SJSA-1 (p53 wild-type) (setting [3]) was 100 nM; in the assay on HCT-116 (p53—/—) (setting [12]), 10600 nM; in the assay on LNCAP (p53 wild-type) (setting [4]), 200 nM; with HCT-116 (p53 wild-type) (setting [5]), 100 nM; in the assay on PC-3 (deleted p53), 11100 nM.

`CC(C)(C)C[C@@H]1N[C@@H](C(=O)N[C@H]2C[C@@](C)(O)C2)[C@H](c2cccc(Cl)c2F)[C@]12C(=O)Nc1cc(Cl)ccc12` [MI-519-6401]: the IC50 is 400 nM with SJSA-1 (p53 wild-type) (setting [6]); 12200 nM with HCT-116 (p53—/—) (setting [7]); 0.13 ± 0.02 µM in the assay with RS4; 11 (p53 wt); 330 nM in the assay with LNCAP (p53 wild-type) (setting [8]); 102 nM in the assay on HCT-116 (p53 wild-type) (setting [9]); 100 to 500 nM in assay [2]. Further, the IC50 in the assay on PC-3 (deleted p53) (96 h) turned out to be 10500 nM.

`CC(C)(C)C[C@H]1N[C@@H](C(=O)N[C@H]2C[C@](C)(O)C2)[C@H](c2cccc(Cl)c2F)[C@@]12C(=O)Nc1cc(Cl)ccc12` [MI-519-65]: the IC50 in the assay on SJSA-1 (p53 wild-type) (setting [3]), in the assay with LNCAP (p53 wild-type) (setting [4]) and with HCT-116 (p53 wild-type) (setting [5]) was below 3000 nM throughout.

As for `CC(C)(C)C[C@@H]1N[C@@H](C(=O)N[C@H]2C[C@@](C)(O)C2)[C@H](c2cc(Cl)ccc2F)[C@]12C(=O)Nc1cc(Cl)ccc12` [C11701], the IC50 is 21800 nM with HCT-116 (p53—/—) (setting [12]), 1500 nM in the assay on LNCAP (p53 wild-type) (setting [4]), 1400 nM in the assay with HCT-116 (p53 wild-type) (setting [5]) and 19600 nM in the assay on PC-3 (deleted p53).

Consider `CC(C)(C)C[C@@H]1N[C@@H](C(=O)NC2CCC(O)CC2)[C@H](Cc2ccccc2)[C@]12C(=O)Nc1cc(Cl)ccc12` (single isomer, unassigned) [CB084-Isomer B], for which the IC50 in assay [1] was above 5 µM.

With `CC(C)(C)C[C@@H]1N[C@@H](C(=O)N[C@H]2C[C@@](C)(O)C2)[C@H](c2cccc(Cl)c2F)[C@]12C(=O)Nc1c2ccc(Cl)c1F`, the IC50 is 200 nM in the assay with SJSA-1 (p53 wild-type) (setting [10]), 300 nM with LNCAP (p53 wild-type) (setting [11]), below 0.1 µM in assay [1] and 10100 nM in the assay with PC-3 (deleted p53).
